Measurements taken from patent US20200278355A1, “CONJUGATED PROTEINS AND USES THEREOF” (THE SCRIPPS RESEARCH INSTITUTE, priority 2017, published 2020).

Target: T1, TXN2 (Homo sapiens, UniProt Q99757)
T1 construct: H460 cells or H460 cells expressing luciferase in a 10 cm plate were incubated with indicated compounds; endogenous in cells; host or cells: H460
Test: isoTOP-ABPP of compound-treated H460 cells: TXN2
Type: cell-based
Conditions: TXN2 C90; 40 μM
Description: For analysis of NR0B1 ligands or control compound reactivity, H460 cells or H460 cells expressing luciferase in a 10 cm plate were incubated with indicated compounds in serum/dye-free RPMI for 3 hours at 37° C. Cells were washed once ice-cold PBS and lysed in 1% Triton X-100 dissolved in PBS with protease inhibitors (Sigma) by sonication. Samples were clarified by centrifugation for 10 min at 16,000×g. Lysate was adjusted to 1.5 mg ml^−1 in 500 μL.
Samples were labeled for 1 h at ambient temperature with 100 μM iodoacetamide alkyne (1, IA-alkyne, 5 μL of 10 mM stock in DMSO). Samples were conjugated by copper-catalyzed azide-alkyne cycloaddition (CuAAC) to isotopically labeled, TEV-cleavable tags (TEV-tags). Heavy CuAAC reaction mixtures was added to the DMSO-treated or shGFP control samples and light CuAAC reaction mixture was added to compound-treated or shNRF2 samples. The CuAAC reaction mixture consisted of TEV tags (light or heavy, 10 μL of 5 mM stocks in DMSO, final concentration=100 μM), 1 mM tris(2-carboxyethyl)phosphine hydrochloride (TCEP; fresh 50× stock in water, final concentration=1 mM), ligand (17× stock in DMSO:t-butanol 1:4, final concentration=100 μM) and 1 mM CuSO4 (50× stock in water, final concentration=1 mM). The samples were allowed to react for 1 h at which point the samples were centrifuged (16,000×g, 5 min, 4° C.). […]

T1 sequence (Q99757 60-166): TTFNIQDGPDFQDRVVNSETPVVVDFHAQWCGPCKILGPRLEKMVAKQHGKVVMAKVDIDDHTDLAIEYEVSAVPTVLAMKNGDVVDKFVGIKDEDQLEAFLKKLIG

Compound: O=C(c1ccc(N2CCOCC2)cc1)N1CCCC(N(Cc2ccccc2)C(=O)CCl)CC1 (stereo not shown) [BPK-29, N-benzyl-2-chloro-N-(1-(4-morpholinobenzoyl)azepan-4-yl)acetamide]
- BPK-29-competed isoTOP-ABPP analysis: Yes (Competed defined as showing R value ≥ 3.0 at 40 μM of test compound)
